Test results published in patent US20240228504A1, “SUBSTITUTED TRICYCLIC AMIDES, ANALOGUES THEREOF, AND METHODS USING SAME” (Arbutus Biopharma Corporation, priority 2020, published 2024).

What follows are compounds tested on HBV rcDNA in HepDE19 cells (assay: HepDE19 assay with bDNA quantitation of HBV rcDNA). Conditions: HepDE19 assay, inhibition of rcDNA formation, bDNA quantitation; read-out: DE-19bDNA EC50.
Type: cell-based, hepatitis B virus

| Structure (SMILES) | EC50 [nM] |
| --- | --- |
| CN(C(=O)c1cc2cc(F)ccc2[nH]1)C1COCc2[nH]c(=O)c3cc(F)ccc3c21 (single isomer, unassigned) [Compound 30, 5-Fluoro-N-(8-fluoro-6-oxo-1,4,5,6-tetrahydro-2H-pyrano[3,4-c]isoquinolin-1-yl)-N-methyl-1H-indole-2-carboxamide] | 10 |
| CN(C(=O)c1cc2ccc(F)cc2[nH]1)C1COCc2[nH]c(=O)c3cc(F)ccc3c21 (single isomer, unassigned) [Compound 31, 6-Fluoro-N-(8-fluoro-6-oxo-1,4,5,6-tetrahydro-2H-pyrano[3,4-c]isoquinolin-1-yl)-N-methyl-1H-indole-2-carboxamide] | 1200 |
| CN(C(=O)c1cc2ccc(F)cc2[nH]1)C1COCc2[nH]c(=O)c3cc(F)ccc3c21 (single isomer, unassigned) [Compound 32, 6-Fluoro-N-(8-fluoro-6-oxo-1,4,5,6-tetrahydro-2H-pyrano[3,4-c]isoquinolin-1-yl)-N-methyl-1H-indole-2-carboxamide] | 20 |
| CN(C(=O)c1cc2cccc(F)c2[nH]1)C1COCc2[nH]c(=O)c3cc(F)ccc3c21 (single isomer, unassigned) [Compound 33, 7-Fluoro-N-(8-fluoro-6-oxo-1,4,5,6-tetrahydro-2H-pyrano[3,4-c]isoquinolin-1-yl)-N-methyl-1H-indole-2-carboxamide] | 1800 |
| CN(C(=O)c1cc2cccc(F)c2[nH]1)C1COCc2[nH]c(=O)c3cc(F)ccc3c21 (single isomer, unassigned) [Compound 34, 7-Fluoro-N-(8-fluoro-6-oxo-1,4,5,6-tetrahydro-2H-pyrano[3,4-c]isoquinolin-1-yl)-N-methyl-1H-indole-2-carboxamide] | 30 |
| CN(C(=O)c1cc2c(F)cc(F)cc2[nH]1)C1COCc2[nH]c(=O)c3cc(F)ccc3c21 (single isomer, unassigned) [Compound 35, 4,6-Difluoro-N-(8-fluoro-6-oxo-1,4,5,6-tetrahydro-2H-pyrano[3,4-c]isoquinolin-1-yl)-N-methyl-1H-indole-2-carboxamide] | 1400 |
| CN(C(=O)c1cc2c(F)cc(F)cc2[nH]1)C1COCc2[nH]c(=O)c3cc(F)ccc3c21 (single isomer, unassigned) [Compound 36, 4,6-Difluoro-N-(8-fluoro-6-oxo-1,4,5,6-tetrahydro-2H-pyrano[3,4-c]isoquinolin-1-yl)-N-methyl-1H-indole-2-carboxamide] | 20 |
| CN(C(=O)c1cc2c(F)c(F)ccc2[nH]1)C1COCc2[nH]c(=O)c3cc(F)ccc3c21 (single isomer, unassigned) [Compound 37, 4,5-Difluoro-N-(8-fluoro-6-oxo-1,4,5,6-tetrahydro-2H-pyrano[3,4-c]isoquinolin-1-yl)-N-methyl-1H-indole-2-carboxamide] | 700 |
| CN(C(=O)c1cc2c(F)c(F)ccc2[nH]1)C1COCc2[nH]c(=O)c3cc(F)ccc3c21 (single isomer, unassigned) [Compound 38, 4,5-Difluoro-N-(8-fluoro-6-oxo-1,4,5,6-tetrahydro-2H-pyrano[3,4-c]isoquinolin-1-yl)-N-methyl-1H-indole-2-carboxamide] | 10 |
| CN(C(=O)c1cc2cccc(F)c2[nH]1)C1COCc2[nH]c(=O)c3cc(F)c(F)cc3c21 (single isomer, unassigned) [Compound 39, N-(8,9-Difluoro-6-oxo-1,4,5,6-tetrahydro-2H-pyrano[3,4-c]isoquinolin-1-yl)-7-fluoro-N-methyl-1H-indole-2-carboxamide] | 770 |
| CN(C(=O)c1cc2cccc(F)c2[nH]1)C1COCc2[nH]c(=O)c3cc(F)c(F)cc3c21 (single isomer, unassigned) [Compound 40, N-(8,9-Difluoro-6-oxo-1,4,5,6-tetrahydro-2H-pyrano[3,4-c]isoquinolin-1-yl)-7-fluoro-N-methyl-1H-indole-2-carboxamide] | 10 |
| CN(C(=O)c1cc2c(F)cc(F)cc2[nH]1)C1COCc2[nH]c(=O)c3cc(F)c(F)cc3c21 (single isomer, unassigned) [Compound 43, N-(8,9-Difluoro-6-oxo-1,4,5,6-tetrahydro-2H-pyrano[3,4-c]isoquinolin-1-yl)-4,6-difluoro-N-methyl-1H-indole-2-carboxamide] | 1800 |
| CN(C(=O)c1cc2c(F)cc(F)cc2[nH]1)C1COCc2[nH]c(=O)c3cc(F)c(F)cc3c21 (single isomer, unassigned) [Compound 44, N-(8,9-Difluoro-6-oxo-1,4,5,6-tetrahydro-2H-pyrano[3,4-c]isoquinolin-1-yl)-4,6-difluoro-N-methyl-1H-indole-2-carboxamide] | 10 |
| CN(C(=O)c1cc2c(F)c(F)ccc2[nH]1)C1COCc2[nH]c(=O)c3cc(F)c(F)cc3c21 (single isomer, unassigned) [Compound 45, N-(8,9-Difluoro-6-oxo-1,4,5,6-tetrahydro-2H-pyrano[3,4-c]isoquinolin-1-yl)-4,5-difluoro-N-methyl-1H-indole-2-carboxamide] | 310 |
| CN(C(=O)c1cc2c(F)c(F)ccc2[nH]1)C1COCc2[nH]c(=O)c3cc(F)c(F)cc3c21 (single isomer, unassigned) [Compound 46, N-(8,9-Difluoro-6-oxo-1,4,5,6-tetrahydro-2H-pyrano[3,4-c]isoquinolin-1-yl)-4,5-difluoro-N-methyl-1H-indole-2-carboxamide] | 5 |
| CN(C(=O)c1cc2c([nH]1)CCC(F)(F)C2)C1COCc2[nH]c(=O)c3cc(F)c(F)cc3c21 (single isomer, unassigned) [Compound 47, N-(8,9-Difluoro-6-oxo-1,4,5,6-tetrahydro-2H-pyrano[3,4-c]isoquinolin-1-yl)-5,5-difluoro-N-methyl-4,5,6,7-tetrahydro-1H-indole-2-carboxamide] | 20 |
| CN(C(=O)c1cc2c([nH]1)CCC(F)(F)C2)C1COCc2[nH]c(=O)c3cc(F)c(F)cc3c21 (single isomer, unassigned) [Compound 48, N-(8,9-Difluoro-6-oxo-1,4,5,6-tetrahydro-2H-pyrano[3,4-c]isoquinolin-1-yl)-5,5-difluoro-N-methyl-4,5,6,7-tetrahydro-1H-indole-2-carboxamide] | 770 |
| CN(C(=O)c1cc2cc(F)c(F)cc2[nH]1)C1COCc2[nH]c(=O)c3cc(F)ccc3c21 (single isomer, unassigned) [Compound 49, 5,6-Difluoro-N-(8-fluoro-6-oxo-1,4,5,6-tetrahydro-2H-pyrano[3,4-c]isoquinolin-1-yl)-N-methyl-1H-indole-2-carboxamide] | 2100 |
| CN(C(=O)c1cc2cc(F)c(F)cc2[nH]1)C1COCc2[nH]c(=O)c3cc(F)ccc3c21 (single isomer, unassigned) [Compound 50, 5,6-Difluoro-N-(8-fluoro-6-oxo-1,4,5,6-tetrahydro-2H-pyrano[3,4-c]isoquinolin-1-yl)-N-methyl-1H-indole-2-carboxamide] | 10 |
| CN(C(=O)c1cc2ccccc2[nH]1)C1CNCc2[nH]c(=O)c3cc(F)c(F)cc3c21 (single isomer, unassigned) [Compound 54, N-(8,9-Difluoro-6-oxo-1,2,3,4,5,6-hexahydrobenzo[c][1,7]naphthyridin-1-yl)-N-methyl-1H-indole-2-carboxamide] | 850 |
| CN(C(=O)c1cc2ccccc2[nH]1)C1CNCc2[nH]c(=O)c3cc(F)c(F)cc3c21 (single isomer, unassigned) [Compound 55, N-(8,9-Difluoro-6-oxo-1,2,3,4,5,6-hexahydrobenzo[c][1,7]naphthyridin-1-yl)-N-methyl-1H-indole-2-carboxamide] | 10 |
| CN1Cc2[nH]c(=O)c3cc(F)ccc3c2C(N(C)C(=O)c2cc3ccccc3[nH]2)C1 (single isomer, unassigned) [Compound 60, N-(8-Fluoro-3-methyl-6-oxo-1,2,3,4,5,6-hexahydrobenzo[c][1,7]naphthyridin-1-yl)-N-methyl-1H-indole-2-carboxamide] | 5900 |
| CN1Cc2[nH]c(=O)c3cc(F)ccc3c2C(N(C)C(=O)c2cc3ccccc3[nH]2)C1 (single isomer, unassigned) [Compound 61, N-(8-Fluoro-3-methyl-6-oxo-1,2,3,4,5,6-hexahydrobenzo[c][1,7]naphthyridin-1-yl)-N-methyl-1H-indole-2-carboxamide] | 2300 |
| CN1Cc2[nH]c(=O)c3cc(F)c(F)cc3c2C(N(C)C(=O)c2cc3ccccc3[nH]2)C1 (single isomer, unassigned) [Compound 62, N-(8,9-Difluoro-3-methyl-6-oxo-1,2,3,4,5,6-hexahydrobenzo[c][1,7]naphthyridin-1-yl)-N-methyl-1H-indole-2-carboxamide] | 5100 |
| CN1Cc2[nH]c(=O)c3cc(F)c(F)cc3c2C(N(C)C(=O)c2cc3ccccc3[nH]2)C1 (single isomer, unassigned) [Compound 63, N-(8,9-Difluoro-3-methyl-6-oxo-1,2,3,4,5,6-hexahydrobenzo[c][1,7]naphthyridin-1-yl)-N-methyl-1H-indole-2-carboxamide] | 170 |
| CC(=O)N1Cc2[nH]c(=O)c3cc(F)ccc3c2C(N(C)C(=O)c2cc3ccccc3[nH]2)C1 (single isomer, unassigned) [Compound 68, N-(3-Acetyl-8-fluoro-6-oxo-1,2,3,4,5,6-hexahydrobenzo[c][1,7]naphthyridin-1-yl)-N-methyl-1H-indole-2-carboxamide] | 5500 |
| CC(=O)N1Cc2[nH]c(=O)c3cc(F)ccc3c2C(N(C)C(=O)c2cc3ccccc3[nH]2)C1 (single isomer, unassigned) [Compound 69, N-(3-Acetyl-8-fluoro-6-oxo-1,2,3,4,5,6-hexahydrobenzo[c][1,7]naphthyridin-1-yl)-N-methyl-1H-indole-2-carboxamide] | 21000 |
| CN(C(=O)c1cc2ccccc2[nH]1)C1CNCc2[nH]c(=O)c3cc(F)ccc3c21 (single isomer, unassigned) [Compound 77, N-(8-Fluoro-6-oxo-1,2,3,4,5,6-hexahydrobenzo[c][1,7]naphthyridin-1-yl)-N-methyl-1H-indole-2-carboxamide] | 150 |
